Laboratory results as given in patent US5948791A, “Quinoline derivatives for treating malaria” (Hoffmann-La Roche Inc., priority 1995, dated 1999).
Structures can show the parent of a compound that is named as a salt. Where two headings read alike, the source gives them in different places.

Key:
[1] = test system: Plasmodium falciparum strain NF54; experiment: Growth inhibition of Plasmodium falciparum NF54 (chloroquine-sensitive) in vitro, [G-3H]-hypoxanthin incorporation; assay type: cell-based; details: chloroquine-sensitive strain NF54, 72 h, read-out: IC50 for P. falciparum NF54
Summary of the method: (§1)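 Asynchronous intraerythrocytic cultures in human A+ erythrocytes (0.7% parasitemia, 2.5% suspension) in RPMI 1640 with HEPES, NaHCO3 and human serum, exposed to compound titrated over 6-7 steps for 72 h at 37° C, 3% O2. Growth by [G-3H]-hypoxanthin incorporation against untreated controls; IC50 by logit regression.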

Plasmodium berghei = experiment: animal or person; assay type: in vivo, Plasmodium berghei (strain ANKA) in mice; details: Plasmodium berghei, mice, blood smears 48 h after treatment
Summary of the method: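 Male albino mice (~25 g) infected i.v. on D0 with P. berghei ANKA (0.2 ml of 10^8 parasitized erythrocytes/ml); single s.c. and p.o. dose 24 h post-infection, 10 mg/kg screen then titration.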

Plasmodium falciparum K1 = experiment: Growth inhibition of Plasmodium falciparum K1 (chloroquine-resistant) in vitro, [G-3H]-hypoxanthin incorporation; assay type: cell-based, Plasmodium falciparum (strain K1); details: for IC50: Plasmodium falciparum, K1, 72 h, read-out: IC50 for P. falciparum K1; for Resistance index: ratio of the IC50 for K1 and the IC50 for NF54
Summary of the method: as §1

[2] = po, single peroral dose of 10 mg/kg, read-out: Growth inhibition in % after po administration (GI%, percentage reduction of the parasitemia)
[3] = sc, single subcutaneous dose of 10 mg/kg, read-out: Growth inhibition in % after sc administration (GI%, percentage reduction of the parasitemia)

Row | SMILES | IC50 [1] [µg/mL] | inhibition in vivo at 10 mg/kg (Plasmodium berghei; [2]) [%] | inhibition in vivo at 10 mg/kg (Plasmodium berghei; [3]) [%] | IC50 (Plasmodium falciparum K1) [µg/mL] | Resistance index (Plasmodium falciparum K1)
1 | CCN(CC)c1ccc(CNC(C)(C)CNc2ccnc3cc(Cl)ccc23)cc1.Cl.Cl.Cl [Example 46, N1-(7-Chloro-quinolin-4-yl)-N2-(4-diethylamino-benzyl)-2-methyl-propane-1,2-diamine trihydrochloride] | 0.0101 | 99.7 | 99 | 0.0126 | 1.2
2 | CC(C)(CNc1ccnc2cc(Cl)ccc12)NCc1ccc([N+](=O)[O-])cc1 [Example 47, N1-(7-Chloro-quinolin-4-yl)-N2-(4-nitro-benzyl)-2-methy-propane-1,2-diamine dihydrochloride] | 0.0094 | 70 | 79 | 0.0136 | 1.4
3 | CC(C)(CNc1ccnc2cc(Cl)ccc12)NCc1cccc(C#N)c1.Cl.Cl [Example 48, N1-(7-Chloro-quinolin-4-yl)-N2-(3-cyano-benzyl)-2-methyl-propane-1,2-diamine dihydrochloride] | 0.0123 | 99.9 | 99.9 | 0.0159 | 1.3
4 | CC(C)(CNc1ccnc2cc(Cl)ccc12)NCc1ccc(C#N)cc1.Cl.Cl [Example 49, N1-(7-Chloro-quinolin-4-yl)-N2-(4-cyano-benzyl)-2-methyl-propane-1,2-diamine dihydrochloride] | 0.0082 | 88 | 87 | 0.0124 | 1.5
5 | CC(C)c1ccc(CNC(C)(C)CNc2ccnc3cc(Cl)ccc23)cc1.Cl.Cl [Example 50, N1-(7-Chloro-quinolin-4-yl)-N2-(4-isopropyl-benzyl)-2-methyl-propane-1,2-diamine dihydrochloride] | 0.0142 | 93 | 96 | 0.0143 | 1.0
6 | CC(C)(CNc1ccnc2cc(Cl)ccc12)NCc1ccc(-c2ccccc2)cc1 [Example 51, N1-(7-Chloro-quinolin-4-yl)-N2-(bipenyl-4-yl-methyl)-2-methyl-propane-1,2-diamine dihydrochloride] | 0.0123 | 82 | 99 | 0.0091 | 0.7
7 | CC(C)(CNc1ccnc2cc(Cl)ccc12)NCc1ccccn1.Cl.Cl.Cl [Example 56, N1-(7-Chloro-quinolin-4-yl)-N2-(pyridin-2-yl-methyl)-2-methyl-propane-1,2-diamine trihydrochloride] | 0.0313 | 98 | 97 | 0.0537 | 1.7
8 | CC(C)(CNc1ccnc2cc(Cl)ccc12)NCc1cccnc1.Cl.Cl.Cl [Example 57, N1-(7-Chloro-quinolin-4-yl)-N2-(pyridin-3-yl-methyl)-2-methyl-propane-1,2-diamine trihydrochloride] | 0.0217 | 99.4 | 99.7 | 0.0282 | 1.3
9 | CC(C)(CNc1ccnc2cc(Cl)ccc12)NCc1ccnc2ccccc12.Cl.Cl.Cl [Example 58, N1-(7-Chloro-quinolin-4-yl)-N2-(quinolin-4-yl-methyl)-2-methyl-propane-1,2-diamine trihydrochloride] | 0.0293 | 72 | 88 | 0.069 | 2.4
10 | Cl.Cl.Clc1ccc2c(N[C@H]3CCCC[C@@H]3NCc3ccccc3)ccnc2c1 [Example 60, (1S,2S)-N1-(7-Chloro-quinolin-4-yl)-N2-(benzyl)-cyclohexane-1,2-diamine hydrochloride (1:2)] | 0.0077 | 67 | 87 | 0.0122 | 1.6
11 | Cl.Cl.Clc1ccc(CN[C@H]2CCCC[C@@H]2Nc2ccnc3cc(Cl)ccc23)cc1 [Example 61, (1S,2S)-N1-(7-Chloro-quinolin-4-yl)-N2-(4-chloro-benzyl)-cyclohexane-1,2-diamine dihydrochloride] | 0.0127 | 99.6 | 99.6 | 0.0112 | 0.9
12 | Cl.Cl.Clc1ccc(CN[C@H]2CCCC[C@@H]2Nc2ccnc3cc(Cl)ccc23)c(Cl)c1 [Example 62, (1S,2S)-N1-(7-Chloro-quinolin-4-yl)-N2-(2,4-dichloro-benzyl)-cyclohexane-1,2-diamine dihydrochloride] | 0.0508 | 99.8 | 99.8 | 0.0642 | 1.3
13 | Cl.Cl.Clc1ccc2c(N[C@H]3CCCC[C@@H]3NCc3ccc(Cl)c(Cl)c3)ccnc2c1 [Example 63, (1S,2S)-N1-(7-Chloro-quinolin-4-yl)-N2-(3,4-dichloro-benzyl)-cyclohexane-1,2-diamine dihydrochloride] | 0.0101 | 99.9 | 99.9 | 0.0146 | 1.4
14 | Cl.Cl.FC(F)(F)c1ccc(CN[C@H]2CCCC[C@@H]2Nc2ccnc3cc(Cl)ccc23)c(C(F)(F)F)c1 [Example 64, (1S,2S)-N1-(7-Chloro-quinolin-4-yl)-N2-(2,4-bis-trifluoromethyl-benzyl)-cyclohexane-1,2-diamine dihydrochloride] | 0.0357 | 87 | 66 | 0.0823 | 2.3
15 | CN(C)c1ccc(CN[C@H]2CCCC[C@@H]2Nc2ccnc3cc(Cl)ccc23)cc1.Cl.Cl [Example 66, (1S,2S)-N1-(7-Chloro-quinolin-4-yl)-N2-(4-dimethylamino-benzyl)-cyclohexane-1,2-diamine dihydrochloride] | 0.0056 | 99.9 | 99.6 | 0.0105 | 1.9
16 | Cl.Cl.N#Cc1ccc(CN[C@H]2CCCC[C@@H]2Nc2ccnc3cc(Cl)ccc23)cc1 [Example 67, (1S,2S)-N1-(7-Chloro-quinolin-4-yl)-N2-(4-cyano-benzyl)-cyclohexane-1,2-diamine dihydrochloride] | 0.0091 | 99 | 99 | 0.023 | 2.5
17 | CN(C)c1ccc(CN[C@H]2CC[C@@H](Nc3ccnc4cc(Cl)ccc34)CC2)cc1.Cl.Cl.Cl [Example 69, cis-N1-(7-Chloro-quinolin-4-yl)-N4-(4-dimethylamino-benzyl)-cyclohexane-1,4-diamine trihydrochloride] | 0.0037 | 100 | 100 | 0.0046 | 1.2
18 | Cl.Cl.Clc1ccc2c(N[C@H]3CC[C@@H](NCc4ccccc4)CC3)ccnc2c1 [Example 70, cis-N1-(7-Chloro-quinolin-4-yl)-N4-(benzyl)-cyclohexane-1,4-diamine dihydrochloride] | 0.0038 | 99.9 | 99.9 | 0.0066 | 1.7
19 | Cl.Cl.Clc1cccc(CN[C@H]2CC[C@@H](Nc3ccnc4cc(Cl)ccc34)CC2)c1 [Example 71, cis-N1-(7-Chloro-quinolin-4-yl)-N4-(3-chloro-benzyl)-cyclohexane-1,4-diamine dihydrochloride] | 0.0071 | 99.8 | 99.9 | 0.0093 | 1.3
20 | Cl.Cl.Clc1ccc(CN[C@H]2CC[C@@H](Nc3ccnc4cc(Cl)ccc34)CC2)cc1 [Example 72, cis-N1-(7-Chloro-quinolin-4-yl)-N4-(4-chloro-benzyl)-cyclohexane-1,4-diamine dihydrochloride] | 0.0116 | 99.5 | 99.9 | 0.0112 | 1.0
21 | Cl.Cl.Clc1ccc(CN[C@H]2CC[C@@H](Nc3ccnc4cc(Cl)ccc34)CC2)c(Cl)c1 [Example 73, cis-N1-(7-Chloro-quinolin-4-yl)-N4-(2,4-dichloro-benzyl)-cyclohexane-1,4-diamine dihydrochloride] | 0.015 | 23 | 96 | 0.019 | 1.3
22 | Cl.Cl.Clc1ccc2c(N[C@H]3CC[C@@H](NCc4ccc(Cl)c(Cl)c4)CC3)ccnc2c1 [Example 74, cis-N1-(7-Chloro-quinolin-4-yl)-N4-(3,4-dichloro-benzyl)-cyclohexane-1,4-diamine dihydrochloride] | 0.0233 | 83 | 84 | 0.0145 | 0.6
23 | Cl.Cl.Clc1cc(Cl)cc(CN[C@H]2CC[C@@H](Nc3ccnc4cc(Cl)ccc34)CC2)c1 [Example 75, cis-N1-(7-Chloro-quinolin-4-yl)-N4-(3,5-dichloro-benzyl)-cyclohexane-1,4-diamine dihydrochloride] | 0.025 | 99.8 | 99.7 | 0.018 | 0.7
